Source: paper PMC6609034, “Unraveling the role of the secretor antigen in human rotavirus attachment to histo-blood group antigens” (PLoS Pathogens, 2019)

Experiments:
[1] = test system: VP8* P[8]c binding to the H1 antigen; assay: Binding blocking assay, immobilized H1 antigen; parameters: species or system human rotavirus; conditions: soluble sugar at 20 mM
Procedure: (§1) To confirm the binding of the VP8* from the P[8] genotype to the H type-1 precursor LNB, a blocking assay was performed using soluble LNB and its related disaccharide galacto-N-biose (Gal-β-1,3-GalNAc; GNB) produced and purified in our laboratory as previously described.
(§2) Streptavidin microtiter plates were coated with biotinylated H type-1 antigen or LNB at 2 μg/ml with water and incubated for 1 hour at 37°C, followed by an overnight incubation at 4°C. Blocking assays were performed in parallel, using glass tubes containing the P[8]c and P[8]Wa VP8* protein at their EC50 for each ligand and 20 mM of each of the soluble disaccharides (LNB and GNB) and monosaccharides (D-galactose, GlcNAc and GalNAc). A positive binding control without sugar was also included. The tubes containing the mixes of VP8* with sugars were maintained 1 hour at 37°C, followed by an overnight incubation at 4°C. The next day the coated streptavidin plates were washed with PBS-T, the VP8*-sugar solutions were added to the plates and incubated during 4 hours at 4°C. The plates were washed three times with PBS-T and detection of the interactions was performed as described above. The results are presented as the percentage (%) of binding of each condition compared to the binding of the positive binding control (without blocking sugar). All experiments were performed in triplicate.

[2] = test system: VP8* P[8]c binding to LNB; assay: Binding blocking assay, immobilized LNB; parameters: species or system human rotavirus; conditions: soluble sugar at 20 mM
Procedure: as §1, §2

VP8* P[11] = assay: ELISA-like binding assay to biotinylated HBGAs; parameters: species or system rotavirus; conditions: biotinylated PAA glycan 2 μg/ml, VP8* 10 μg/ml
Source text: (§3) A panel of biotinylated sugar antigens including Le^a, Le^b, Le^c (lacto-N-biose; LNB), H type-1, H type-2 and blood group A and B trisaccharides were purchased from Glyconz (Fig 1 and S1 Table). These glycans are biotinylated neoglyconjugates of a poly[N-(2-hydroxyethyl)acrylamide] (PAA) with a size from 30 to 50 KDa. This forms a flexible polymer ideal for a multivalent presentation of glycans. Immobilized streptavidin F96 black plates (Nunc) were coated with the biotinylated oligosaccharides (2 μg/ml) in milli-Q water and incubated during 1 hour at 37°C. After functionalization the plates were washed once with PBS containing 0.05% of Tween 20 (PBS-T) and the VP8* proteins were added (10 μg/ml) and incubated at 4°C overnight. After three washes with PBS-T, a rabbit polyclonal antibody anti GST (1:1,000) (Abcam) was added and the plates were incubated one hour at 37°C. Then, the plates were washed three times with PBS-T and incubated for 1 h at 37°C with 1:10,000 dilution of horseradish peroxidase (HRP)-conjugated goat anti-rabbit (Abcam). After three washes with PBS-T, the binding was detected using QuantaBlue reagent (ThermoFisher) kit, as recommended by the manufacturer. Fluorescence units were registered by a MultiScan microplate reader. All the binding assays were performed in triplicate.

VP8* P[4] = assay: ELISA-like binding assay to biotinylated HBGAs; parameters: species or system human rotavirus; conditions: biotinylated PAA glycan 2 μg/ml, VP8* 10 μg/ml
Source text: as §3

VP8* P[8] = assay: ELISA-like binding assay to biotinylated HBGAs; parameters: species or system human rotavirus; conditions: biotinylated PAA glycan 2 μg/ml, VP8* 10 μg/ml
Source text: as §3

VP8* P[9] = assay: ELISA-like binding assay to biotinylated HBGAs; parameters: species or system human rotavirus; conditions: biotinylated PAA glycan 2 μg/ml, VP8* 10 μg/ml
Source text: as §3

VP8* P[14] = assay: ELISA-like binding assay to biotinylated HBGAs; parameters: species or system human rotavirus; conditions: biotinylated PAA glycan 2 μg/ml, VP8* 10 μg/ml
Source text: as §3

VP8* P[25] = assay: ELISA-like binding assay to biotinylated HBGAs; parameters: species or system rotavirus; conditions: biotinylated PAA glycan 2 μg/ml, VP8* 10 μg/ml
Source text: as §3

## O=C[C@H](O)[C@@H](O)[C@@H](O)[C@H](O)CO [D-galactose]
[1]
  reduction in the binding to the H1 antigen: 14.7%

## CC(=O)N[C@H]1C(O)O[C@H](CO)[C@H](O)[C@@H]1O[C@@H]1O[C@H](CO)[C@H](O)[C@H](O)[C@H]1O (stereo partly drawn) [GNB, Gal-β1,3-GalNAc]
[1]
  reduction in the binding to the H1 antigen: 30.1%
[2]
  reduction of the binding of VP8* P[8]c to LNB: 44.1%

## CC(=O)NC1C(O)OC(CO)C(OC2OC(CO)C(O)C(O)C2OC2OC(C)C(O)C(O)C2O)C1O (stereo not drawn) [H2, Fuc-α1,2-Gal-β1,4-GlcNAc]
VP8* P[11]
  binding (ELISA-like): recognized

## C[C@H](O)[C@@H](O)[C@@H](O)[C@H](O)C=O [L-fucose]
[1]
  effect on the binding of VP8* to the H1 antigen: significantly increased the binding

## Fuc-α1,2-Gal-β1,3-[Fuc-α1,4-]GlcNAc [Lewis^b]
VP8* P[4]
  binding (ELISA-like): very low or absence of binding
VP8* P[8]
  binding (ELISA-like): very low or absence of binding

## GlcNAc-α1,3-(Fucα1,2)-Gal [Atri]
VP8* P[9]
  binding (ELISA-like): recognized
VP8* P[14]
  binding (ELISA-like): recognized
VP8* P[8]
  binding (ELISA-like): low binding
VP8* P[25]
  binding (ELISA-like): recognized
